Test results as given in PubChem BioAssay (NCI).
“And” between values parts separate entries of the source, which are not always exact repeats. Identical values can stand only once.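 The concentration for 50% growth inhibition is given as GI50. TGI marks complete inhibition of growth.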

Columns and labels:
Assay in all cases: NCI anticancer screen, dose series, 384-well format
786-0 renal = system: 786-0 renal
A498 renal = system: A498 renal
A549 NSCLC = system: A549 NSCLC
ACHN renal = system: ACHN renal
BT-549 breast = system: BT-549 breast
CAKI-1 renal = system: CAKI-1 renal
CCRF-CEM leukemia = system: CCRF-CEM leukemia
COLO 205 colon = system: COLO 205 colon
DU-145 prostate = system: DU-145 prostate
EKVX NSCLC = system: EKVX NSCLC
HCC-2998 colon = system: HCC-2998 colon
HCT-116 colon = system: HCT-116 colon
HCT-15 colon = system: HCT-15 colon
HL-60(TB) leukemia = system: HL-60(TB) leukemia
HOP-62 NSCLC = system: HOP-62 NSCLC
HOP-92 NSCLC = system: HOP-92 NSCLC
HS 578T breast = system: HS 578T breast
HT29 colon = system: HT29 colon
IGROV1 ovarian = system: IGROV1 ovarian
K-562 leukemia = system: K-562 leukemia
KM12 colon = system: KM12 colon
LOX IMVI melanoma = system: LOX IMVI melanoma
M14 melanoma = system: M14 melanoma
MALME-3M melanoma = system: MALME-3M melanoma
MCF7 breast = system: MCF7 breast
MDA-MB-231 breast = system: MDA-MB-231 breast
MDA-MB-435 melanoma = system: MDA-MB-435 melanoma
MDA-MB-468 breast = system: MDA-MB-468 breast
MOLT-4 leukemia = system: MOLT-4 leukemia
NCI-H226 lung = system: NCI-H226 lung
NCI-H23 lung = system: NCI-H23 lung
NCI-H322M lung = system: NCI-H322M lung
NCI-H460 NSCLC = system: NCI-H460 NSCLC
NCI-H522 lung = system: NCI-H522 lung
NCI/ADR-RES ovarian = system: NCI/ADR-RES ovarian
OVCAR-3 ovarian = system: OVCAR-3 ovarian
OVCAR-4 ovarian = system: OVCAR-4 ovarian
OVCAR-5 ovarian = system: OVCAR-5 ovarian
OVCAR-8 ovarian = system: OVCAR-8 ovarian
PC-3 prostate = system: PC-3 prostate
RPMI-8226 leukemia = system: RPMI-8226 leukemia
RXF 393 renal = system: RXF 393 renal
SF-268 CNS = system: SF-268 CNS
SF-295 CNS = system: SF-295 CNS
SF-539 CNS = system: SF-539 CNS
SK-MEL-2 melanoma = system: SK-MEL-2 melanoma
SK-MEL-28 melanoma = system: SK-MEL-28 melanoma
SK-MEL-5 melanoma = system: SK-MEL-5 melanoma
SK-OV-3 ovarian = system: SK-OV-3 ovarian
SN12C renal = system: SN12C renal
SNB-19 CNS = system: SNB-19 CNS
SNB-75 CNS = system: SNB-75 CNS
SR leukemia = system: SR leukemia
SW-620 colon = system: SW-620 colon
T-47D breast = system: T-47D breast
TK-10 renal = system: TK-10 renal
U251 glioblastoma = system: U251 glioblastoma
UACC-257 melanoma = system: UACC-257 melanoma
UACC-62 melanoma = system: UACC-62 melanoma
UO-31 renal = system: UO-31 renal

## O=S(=O)(NCCNC/C=C/c1ccc(Br)cc1)c1cccc2cnccc12
786-0 renal
  GI50: 7.52 µM and 11.2 µM
  TGI: 20.1 µM and 23.3 µM
A498 renal
  GI50: 5.06 µM and 10.3 µM
  TGI: 19.6 µM and 22.1 µM
A549 NSCLC
  GI50: 14 µM
  TGI: 27.1 µM
ACHN renal
  GI50: 11.7 µM and 13.5 µM
  TGI: 24 µM and 26.4 µM
BT-549 breast
  GI50: 3.57 µM and 6.51 µM
  TGI: 11.8 µM and 19.2 µM
CAKI-1 renal
  GI50: 7.31 µM and 7.09 µM
  TGI: 20.1 µM and 19.8 µM
CCRF-CEM leukemia
  GI50: 3.81 µM and 5.3 µM
  TGI: 11.4 µM and 16.8 µM
COLO 205 colon
  TGI: 2.6 µM and 16.1 µM
DU-145 prostate
  GI50: 14.5 µM and 13.8 µM
  TGI: 27.8 µM and 26.9 µM
EKVX NSCLC
  GI50: 6.07 µM and 10 µM
  TGI: 18.9 µM and 21.7 µM
HCC-2998 colon
  GI50: 2150 nM and 2090 nM
  TGI: 3.82 µM and 3.91 µM
HCT-116 colon
  GI50: 5.55 µM and 5.73 µM
  TGI: 17.9 µM and 17.3 µM
HCT-15 colon
  GI50: 13.2 µM and 10.1 µM
  TGI: 26.1 µM and 21.9 µM
HL-60(TB) leukemia
  GI50: 1210 nM and 3620 nM
  TGI: 10.8 µM and 12.6 µM
HOP-62 NSCLC
  GI50: 11.8 µM and 14.2 µM
  TGI: 24.2 µM and 27.3 µM
HOP-92 NSCLC
  GI50: 10.7 µM and 10.8 µM
  TGI: 22.6 µM and 22.7 µM
HS 578T breast
  GI50: 4.89 µM and 8.58 µM
  TGI: 16.5 µM and 20.7 µM
HT29 colon
  GI50: 3.17 µM and 4.08 µM
  TGI: 9.44 µM and 13.5 µM
IGROV1 ovarian
  GI50: 11.1 µM
  TGI: 23.3 µM
K-562 leukemia
  GI50: 1880 nM and 3300 nM
  TGI: 3.88 µM and 10.6 µM
KM12 colon
  GI50: 4.08 µM and 6.28 µM
  TGI: 19 µM and 18.3 µM
LOX IMVI melanoma
  GI50: 11.6 µM and 10.2 µM
  TGI: 23.9 µM and 22 µM
M14 melanoma
  TGI: 3.48 µM and 18.4 µM
MALME-3M melanoma
  GI50: 391 nM and 2090 nM
  TGI: 1620 nM and 4150 nM
MCF7 breast
  GI50: 3.15 µM and 5.52 µM
  TGI: 18.8 µM and 18.2 µM
MDA-MB-231 breast
  GI50: 11.5 µM and 10.9 µM
  TGI: 23.8 µM and 22.9 µM
MDA-MB-435 melanoma
  GI50: 13 µM and 13.2 µM
  TGI: 25.7 µM and 26 µM
MDA-MB-468 breast
  GI50: 3.44 µM and 3.33 µM
  TGI: 9.73 µM and 12.7 µM
MOLT-4 leukemia
  GI50: 2.47 µM and 3.65 µM
  TGI: 6.41 µM and 12.7 µM
NCI-H226 lung
  GI50: 11.2 µM and 15.4 µM
  TGI: 23.4 µM and 28.8 µM
NCI-H23 lung
  GI50: 6.06 µM and 10 µM
  TGI: 20.3 µM and 21.6 µM
NCI-H322M lung
  GI50: 10.2 µM and 10.7 µM
  TGI: 21.9 µM and 22.6 µM
NCI-H460 NSCLC
  GI50: 4.63 µM and 4.23 µM
  TGI: 15.9 µM and 14.5 µM
NCI-H522 lung
  GI50: 12.1 µM and 13.7 µM
  TGI: 24.6 µM and 26.6 µM
NCI/ADR-RES ovarian
  GI50: 13.2 µM and 14.6 µM
  TGI: 26.1 µM and 27.9 µM
OVCAR-3 ovarian
  GI50: 11.3 µM and 14.7 µM
  TGI: 23.4 µM and 28 µM
OVCAR-4 ovarian
  GI50: 12.8 µM and 13.8 µM
  TGI: 25.5 µM and 26.8 µM
OVCAR-5 ovarian
  GI50: 12.7 µM
  TGI: 25.4 µM
OVCAR-8 ovarian
  GI50: 12.2 µM and 11.8 µM
  TGI: 24.7 µM and 24.2 µM
PC-3 prostate
  GI50: 3.6 µM and 6.95 µM
  TGI: 18.6 µM and 19.8 µM
RPMI-8226 leukemia
  GI50: 815 nM and 3150 nM
  TGI: 5.43 µM and 11.4 µM
RXF 393 renal
  GI50: 1.08 µM and 5.38 µM
  TGI: 8.71 µM and 18 µM
SF-268 CNS
  GI50: 12 µM and 12.9 µM
  TGI: 24.4 µM and 25.6 µM
SF-295 CNS
  GI50: 15.4 µM and 14.7 µM
  TGI: 28.8 µM and 27.9 µM
SF-539 CNS
  GI50: 5.11 µM and 10.2 µM
  TGI: 19.7 µM and 21.9 µM
SK-MEL-2 melanoma
  GI50: 2740 nM
  TGI: 6.86 µM
SK-MEL-28 melanoma
  GI50: 1880 nM and 4090 nM
  TGI: 15.6 µM and 14 µM
SK-MEL-5 melanoma
  GI50: 2.89 µM and 3.31 µM
  TGI: 10.1 µM and 12.7 µM
SK-OV-3 ovarian
  GI50: 10.4 µM and 10.9 µM
  TGI: 22.2 µM and 22.9 µM
SN12C renal
  GI50: 13.4 µM and 13.1 µM
  TGI: 26.3 µM and 25.8 µM
SNB-19 CNS
  GI50: 17 µM and 16.1 µM
  TGI: 30.8 µM and 29.7 µM
SNB-75 CNS
  GI50: 10.3 µM and 10.8 µM
  TGI: 22 µM and 22.7 µM
SR leukemia
  GI50: 340 nM and 3270 nM
  TGI: 1.15 µM and 5.05 µM
SW-620 colon
  GI50: 14 µM and 14.8 µM
  TGI: 27.1 µM and 28.2 µM
T-47D breast
  GI50: 2.78 µM and 4.36 µM
  TGI: 13.3 µM and 16.8 µM
TK-10 renal
  GI50: 10.4 µM and 11.3 µM
  TGI: 22.2 µM and 23.5 µM
U251 glioblastoma
  GI50: 12.3 µM and 12.5 µM
  TGI: 24.9 µM and 25.2 µM
UACC-257 melanoma
  GI50: 2200 nM and 2340 nM
  TGI: 4.51 µM and 5.87 µM
UACC-62 melanoma
  GI50: 814 nM and 3200 nM
  TGI: 6.43 µM and 10.8 µM
UO-31 renal
  GI50: 12.5 µM and 13.1 µM
  TGI: 25.1 µM and 26 µM
